The subject of this test is MV-4-11 cells. The experiment in a line: Gene expression microarray analysis (Affymetrix PrimeView) and GSEA. The class given is cell-based, human. Further details: RFU PODN (11730768_x_at) / Fold change /veh PODN (11730768_x_at) / RFU LINC00158 (11744669_a_at) / Fold change /veh LINC00158 (11744669_a_at) / RFU DUSP10 (11751237_a_at) / Fold change /veh DUSP10 (11751237_a_at) / RFU ID3 (11757404_x_at) / Fold change /veh ID3 (11757404_x_at) / RFU PLEKHG5 (11737974_s_at) / Fold change /veh PLEKHG5 (11737974_s_at) / RFU LRRC4B (11730491_at) / Fold change /veh LRRC4B (11730491_at) / RFU GIMAP4 (11747438_a_at) / Fold change /veh GIMAP4 (11747438_a_at) / RFU KRT8 (11758183_x_at) / Fold change /veh KRT8 (11758183_x_at) / RFU CNN1 (11734310_a_at) / Fold change /veh CNN1 (11734310_a_at) / RFU VPS37D (11726825_at) / Fold change /veh VPS37D (11726825_at) / RFU C10orf10 (11716522_x_at) / Fold change /veh C10orf10 (11716522_x_at) / RFU KIR2DL2 /// KIR2DL4 /// KIR2DL5A /// KIR2DL5B /// KIR2DS1 /// KIR2DS2 /// KIR2DS3 /// KIR2DS4 /// KIR3DL3 /// KIR3DL3 /// KIR3DS1 (11738374_at) / Fold change /veh KIR2DL2 /// KIR2DL4 /// KIR2DL5A /// KIR2DL5B /// KIR2DS1 /// KIR2DS2 /// KIR2DS3 /// KIR2DS4 /// KIR3DL3 /// KIR3DL3 /// KIR3DS1 (11738374_at) / RFU C1QL1 (11718748_at) / Fold change /veh C1QL1 (11718748_at) / RFU TMPRSS4 (11747572_a_at) / Fold change /veh TMPRSS4 (11747572_a_at) / RFU HAMP (11756126_x_at) / Fold change /veh HAMP (11756126_x_at) / RFU RNFT2 (11725882_a_at) / Fold change /veh RNFT2 (11725882_a_at) / RFU NR4A2 (11747474_a_at) / Fold change /veh NR4A2 (11747474_a_at) / RFU ABCC12 (11746883_a_at) / Fold change /veh ABCC12 (11746883_a_at) / RFU TMEM136 (11760407_x_at) / Fold change /veh TMEM136 (11760407_x_at) / RFU CLDN22 /// WWC2 (11732394_at) / Fold change /veh CLDN22 /// WWC2 (11732394_at) / RFU HLA-DPB1 (11760878_x_at) / Fold change /veh HLA-DPB1 (11760878_x_at) / RFU SPINT1 (11716480_a_at) / Fold change /veh SPINT1 (11716480_a_at) / RFU GAP43 (11754022_s_at) / Fold change /veh GAP43 (11754022_s_at) / RFU A4GNT (11735810_at) / Fold change /veh A4GNT (11735810_at) / RFU PRB3 (11715151_x_at) / Fold change /veh PRB3 (11715151_x_at) / RFU TUBB4B (11761932_at) / Fold change /veh TUBB4B (11761932_at) / RFU CAPN14 (11732068_a_at) / Fold change /veh CAPN14 (11732068_a_at) / RFU TMCC2 (11721928_a_at) / Fold change /veh TMCC2 (11721928_a_at) / RFU IRGQ (11745062_a_at) / Fold change /veh IRGQ (11745062_a_at) / RFU FAM174B (11720279_a_at) / Fold change /veh FAM174B (11720279_a_at) / RFU TMPRSS4 (11748680_a_at) / Fold change /veh TMPRSS4 (11748680_a_at) / RFU FAM212B (11763350_a_at) / Fold change /veh FAM212B (11763350_a_at) / RFU PLEKHG5 (11743358_a_at) / Fold change /veh PLEKHG5 (11743358_a_at) / RFU ZSCAN30 (11745921_a_at) / Fold change /veh ZSCAN30 (11745921_a_at) / RFU CMKLR1 (11741424_a_at) / Fold change /veh CMKLR1 (11741424_a_at) / RFU LOC101060620 /// MAPK8IP1 (11723275_at) / Fold change /veh LOC101060620 /// MAPK8IP1 (11723275_at) / RFU SPTSSB (11747773_x_at) / Fold change /veh SPTSSB (11747773_x_at) / RFU PRSS12 (11739890_at) / Fold change /veh PRSS12 (11739890_at) / RFU BIN1 (11741810_x_at) / Fold change /veh BIN1 (11741810_x_at) / RFU WNT11 (11732464_a_at) / Fold change /veh WNT11 (11732464_a_at) / RFU C10orf10 (11716521_a_at) / Fold change /veh C10orf10 (11716521_a_at) / RFU C5orf56 (11738089_at) / Fold change /veh C5orf56 (11738089_at) / RFU CYB561 (11721691_x_at) / Fold change /veh CYB561 (11721691_x_at) / RFU ANKRD19P (11752326_a_at) / Fold change /veh ANKRD19P (11752326_a_at) / RFU OR2T12 /// OR2T33 /// OR2T8 (11738714_s_at) / Fold change /veh OR2T12 /// OR2T33 /// OR2T8 (11738714_s_at) / RFU VCAN (11748164_a_at) / Fold change /veh VCAN (11748164_a_at) / RFU JSRP1 (11732532_at) / Fold change /veh JSRP1 (11732532_at) / RFU KRTAP10-11 (11738290_x_at) / Fold change /veh KRTAP10-11 (11738290_x_at) / RFU MYO3A (11730013_a_at) / Fold change /veh MYO3A (11730013_a_at) / RFU EBF3 (11725865_a_at) / Fold change /veh EBF3 (11725865_a_at) / RFU CAMK2N1 (11719241_x_at) / Fold change /veh CAMK2N1 (11719241_x_at) / RFU C5orf56 (11738088_a_at) / Fold change /veh C5orf56 (11738088_a_at) / RFU OLFML3 (11715873_a_at) / Fold change /veh OLFML3 (11715873_a_at) / RFU LOC100653217 /// NTM (11731650_a_at) / Fold change /veh LOC100653217 /// NTM (11731650_a_at) / RFU MAPK11 (11762145_a_at) / Fold change /veh MAPK11 (11762145_a_at) / RFU FIZ1 (11724087_x_at) / Fold change /veh FIZ1 (11724087_x_at) / RFU OASL (11726364_x_at) / Fold change /veh OASL (11726364_x_at) / RFU SOX15 (11748057_x_at) / Fold change /veh SOX15 (11748057_x_at) / RFU CD79A (11719716_a_at) / Fold change /veh CD79A (11719716_a_at) / RFU HIST1H1D (11736915_at) / Fold change /veh HIST1H1D (11736915_at) / RFU CASKIN2 (11723855_a_at) / Fold change /veh CASKIN2 (11723855_a_at) / RFU LOC730098 (11760151_x_at) / Fold change /veh LOC730098 (11760151_x_at) / RFU OR4N2 (11742367_at) / Fold change /veh OR4N2 (11742367_at) / RFU PRRT2 (11749266_a_at) / Fold change /veh PRRT2 (11749266_a_at) / RFU SNX32 (11753110_a_at) / Fold change /veh SNX32 (11753110_a_at) / RFU CDHR5 (11726645_a_at) / Fold change /veh CDHR5 (11726645_a_at) / RFU RCAN1 (11760418_a_at) / Fold change /veh RCAN1 (11760418_a_at) / RFU FAM167A (11723789_a_at) / Fold change /veh FAM167A (11723789_a_at) / RFU FAM26E (11764081_at) / Fold change /veh FAM26E (11764081_at) / RFU ISYNA1 (11749810_s_at) / Fold change /veh ISYNA1 (11749810_s_at) / RFU ACY1 (11761880_at) / Fold change /veh ACY1 (11761880_at) / RFU 11764098_at / Fold change /veh 11764098_at / RFU SAMD14 (11745864_x_at) / Fold change /veh SAMD14 (11745864_x_at) / RFU NPB (11741838_a_at) / Fold change /veh NPB (11741838_a_at) / RFU TMPRSS6 (11731388_a_at) / Fold change /veh TMPRSS6 (11731388_a_at) / RFU KRTAP10-2 (11738614_at) / Fold change /veh KRTAP10-2 (11738614_at) / RFU ARHGAP8 /// PRR5-ARHGAP8 (11727945_x_at) / Fold change /veh ARHGAP8 /// PRR5-ARHGAP8 (11727945_x_at) / RFU KRTAP5-7 /// NADSYN1 (11734609_at) / Fold change /veh KRTAP5-7 /// NADSYN1 (11734609_at) / RFU RASL12 (11751679_a_at) / Fold change /veh RASL12 (11751679_a_at) / RFU CDKN2B (11736163_a_at) / Fold change /veh CDKN2B (11736163_a_at) / RFU PRF1 (11729649_at) / Fold change /veh PRF1 (11729649_at) / RFU, ZNF638 /// ZNF638-IT1 / Fold change vs veh, ZNF638 /// ZNF638-IT1 / RFU, PANK3 / Fold change vs veh, PANK3 / RFU, SH3YL1 / Fold change vs veh, SH3YL1 / RFU, ZEB2 / Fold change vs veh, ZEB2 / RFU, NRIP1 / Fold change vs veh, NRIP1 / RFU, PTTG1IP / Fold change vs veh, PTTG1IP / RFU, CAPN2 / Fold change vs veh, CAPN2 / RFU, MED14 / Fold change vs veh, MED14 / RFU, SNORA58 / Fold change vs veh, SNORA58 / RFU, C1orf63 / Fold change vs veh, C1orf63 / RFU, LRRFIP1 / Fold change vs veh, LRRFIP1 / RFU, NDUFAF7 / Fold change vs veh, NDUFAF7 / RFU, SLC12A2 / Fold change vs veh, SLC12A2 / RFU, IBTK / Fold change vs veh, IBTK / RFU, ESF1 / Fold change vs veh, ESF1 / Fold change vs veh, TMEM50B / RFU, TAOK1 / Fold change vs veh, TAOK1 / RFU, ACBD3 / Fold change vs veh, ACBD3 / RFU, TMA16 / Fold change vs veh, TMA16 / RFU, RWDD3 / Fold change vs veh, RWDD3 / RFU, BCAT1 / Fold change vs veh, BCAT1 / RFU, EDEM3 / Fold change vs veh, EDEM3 / RFU, TMEM33 / Fold change vs veh, TMEM33 / RFU, WDR75 / Fold change vs veh, WDR75 / RFU, AHCTF1 / Fold change vs veh, AHCTF1 / RFU, TFRC / Fold change vs veh, TFRC / RFU, ZDHHC17 / Fold change vs veh, ZDHHC17 / RFU, NOM1 / Fold change vs veh, NOM1 / RFU, ARL8B / Fold change vs veh, ARL8B / RFU, ZBTB11 / Fold change vs veh, ZBTB11 / RFU, TAMM41 / Fold change vs veh, TAMM41 / RFU, KIAA1704 /// LOC100996395 / Fold change vs veh, KIAA1704 /// LOC100996395 / RFU, ING1 / Fold change vs veh, ING1 / RFU, TRMT61B / Fold change vs veh, TRMT61B / RFU, FUBP3 / Fold change vs veh, FUBP3 / RFU, TP53 / Fold change vs veh, TP53 / RFU, TNKS2 / Fold change vs veh, TNKS2 / RFU, ZFP14 / Fold change vs veh, ZFP14 / RFU, ACTR2 / Fold change vs veh, ACTR2 / RFU, PPP3R1 / Fold change vs veh, PPP3R1 / RFU, PIK3R1 / Fold change vs veh, PIK3R1 / RFU, HNRNPA1 / Fold change vs veh, HNRNPA1 / RFU, RNF170 / Fold change vs veh, RNF170 / RFU, ZNF28 / Fold change vs veh, ZNF28 / RFU, RNGTT / Fold change vs veh, RNGTT / RFU, OGT / Fold change vs veh, OGT / RFU, BRD1 / Fold change vs veh, BRD1 / RFU, MARS / Fold change vs veh, MARS / RFU, ZNF655 / Fold change vs veh, ZNF655 / RFU, FAHD1 / Fold change vs veh, FAHD1 / RFU, BDP1 / Fold change vs veh, BDP1 / RFU, LRRCC1 / Fold change vs veh, LRRCC1 / RFU, ARID1A / Fold change vs veh, ARID1A / RFU, ZNF146 / Fold change vs veh, ZNF146 / RFU, ZNF330 / Fold change vs veh, ZNF330 / RFU, GPN3 / Fold change vs veh, GPN3 / RFU, C9orf123 / Fold change vs veh, C9orf123 / RFU, N4BP2L2 / Fold change vs veh, N4BP2L2 / RFU, ARFIP1 / Fold change vs veh, ARFIP1 / RFU, FAM179B / Fold change vs veh, FAM179B / RFU, BCL10 / Fold change vs veh, BCL10 / RFU, UHRF1BP1L / Fold change vs veh, UHRF1BP1L / RFU, BET1 / Fold change vs veh, BET1 / RFU, CNOT2 / Fold change vs veh, CNOT2 / RFU, ZNF268 / Fold change vs veh, ZNF268 / Fold change vs veh, ZNF507 / RFU, DGCR2 / Fold change vs veh, DGCR2 / RFU, WDSUB1 / Fold change vs veh, WDSUB1 / Fold change vs veh, HSP90B1 /// MIR3652 / RFU, ADSS / Fold change vs veh, ADSS / RFU, GK / Fold change vs veh, GK / RFU, ZNF148 / Fold change vs veh, ZNF148 / RFU, TAF9 / Fold change vs veh, TAF9 / RFU, SLC1A5 / Fold change vs veh, SLC1A5 / RFU, SLMO2 / Fold change vs veh, SLMO2 / RFU, ABCC4 / Fold change vs veh, ABCC4 / RFU, LOC101060439 /// RAP1B / Fold change vs veh, LOC101060439 /// RAP1B / RFU, RFX7 / Fold change vs veh, RFX7 / RFU, GTPBP10 / Fold change vs veh, GTPBP10 / RFU, CNEP1R1 / Fold change vs veh, CNEP1R1 / RFU, BIVM-ERCC5 /// ERCC5 / Fold change vs veh, BIVM-ERCC5 /// ERCC5 / RFU, ILF3 / Fold change vs veh, ILF3 / RFU 11762660_at / Fold change /veh 11762660_at / RFU VCAN (11757783_s_at) / Fold change /veh VCAN (11757783_s_at) / RFU DDX43 (11728927_at) / Fold change /veh DDX43 (11728927_at) / RFU KRT8 (11758188_x_at) / Fold change /veh KRT8 (11758188_x_at) / RFU NKD1 (11759106_at) / Fold change /veh NKD1 (11759106_at) / RFU SRD5A1 (11742802_a_at) / Fold change /veh SRD5A1 (11742802_a_at) / RFU TPSAB1 /// TPSB2 (11721975_s_at) / Fold change /veh TPSAB1 /// TPSB2 (11721975_s_at) / RFU GSTM3 (11746129_a_at) / Fold change /veh GSTM3 (11746129_a_at) / RFU IL23R (11737362_x_at) / Fold change /veh IL23R (11737362_x_at) / RFU TMEM51 (11727254_a_at) / Fold change /veh TMEM51 (11727254_a_at) / RFU PIWIL2 (11732686_x_at) / Fold change /veh PIWIL2 (11732686_x_at) / RFU ORM1 (11744905_x_at) / Fold change /veh ORM1 (11744905_x_at) / RFU CCDC152 (11743942_at) / Fold change /veh CCDC152 (11743942_at) / RFU ECM1 (11717891_a_at) / Fold change /veh ECM1 (11717891_a_at) / RFU IL23R (11748794_a_at) / Fold change /veh IL23R (11748794_a_at) / RFU TNFAIP8L3 (11732012_x_at) / Fold change /veh TNFAIP8L3 (11732012_x_at) / RFU MBOAT4 (11741988_at) / Fold change /veh MBOAT4 (11741988_at) / RFU 11764193_at / Fold change /veh 11764193_at / RFU TMEM53 (11763286_at) / Fold change /veh TMEM53 (11763286_at) / RFU MAGEB2 (11727129_at) / Fold change /veh MAGEB2 (11727129_at) / RFU TMEM200A (11744735_a_at) / Fold change /veh TMEM200A (11744735_a_at) / RFU CCDC152 (11751479_a_at) / Fold change /veh CCDC152 (11751479_a_at) / RFU FAM211A (11726209_a_at) / Fold change /veh FAM211A (11726209_a_at) / RFU RGS16 (11746705_a_at) / Fold change /veh RGS16 (11746705_a_at) / RFU VCAN (11755009_s_at) / Fold change /veh VCAN (11755009_s_at) / RFU RHOB (11743442_s_at) / Fold change /veh RHOB (11743442_s_at) / RFU RGS16 (11720943_a_at) / Fold change /veh RGS16 (11720943_a_at) / RFU RGS16 (11720944_at) / Fold change /veh RGS16 (11720944_at) / RFU, VPS4B / Fold change vs veh, VPS4B / RFU, CREB1 / Fold change vs veh, CREB1 / RFU, DNAJC13 / Fold change vs veh, DNAJC13 / RFU, GNAQ / Fold change vs veh, GNAQ / RFU, CDK5R1 / Fold change vs veh, CDK5R1 / RFU, ZRANB3 / Fold change vs veh, ZRANB3 / RFU, CUL4A / Fold change vs veh, CUL4A / RFU, CCNY / Fold change vs veh, CCNY / RFU, UFL1 / Fold change vs veh, UFL1 / RFU, COG3 / Fold change vs veh, COG3 / RFU, DIAPH2 / Fold change vs veh, DIAPH2 / RFU, SKA2 / Fold change vs veh, SKA2 / RFU, AFF3 / Fold change vs veh, AFF3 / RFU, LMF1 / Fold change vs veh, LMF1 / RFU, IPO11 / Fold change vs veh, IPO11 / RFU, DFFB / Fold change vs veh, DFFB / RFU, FOXP1 / Fold change vs veh, FOXP1 / RFU, CARD8 / Fold change vs veh, CARD8 / RFU, STRN3 / Fold change vs veh, STRN3 / RFU, ADK / Fold change vs veh, ADK / RFU, RASSF2 / Fold change vs veh, RASSF2 / RFU, WIPF1 / Fold change vs veh, WIPF1 / RFU, LARP1B / Fold change vs veh, LARP1B / RFU, RASA1 / Fold change vs veh, RASA1 / RFU, RB1 / Fold change vs veh, RB1 / RFU, PPFIA1 / Fold change vs veh, PPFIA1 / RFU, MAT2A / Fold change vs veh, MAT2A / RFU, CCT5 / Fold change vs veh, CCT5 / RFU, WDR92 / Fold change vs veh, WDR92 / RFU, CUX1 / Fold change vs veh, CUX1 / RFU, TTC7A / Fold change vs veh, TTC7A / RFU, TMEM135 / Fold change vs veh, TMEM135 / RFU, DEPTOR / Fold change vs veh, DEPTOR / RFU, CPM / Fold change vs veh, CPM / RFU, DNAJB6 / Fold change vs veh, DNAJB6 / RFU, CACNA2D3 / Fold change vs veh, CACNA2D3 / RFU, DTX4 / Fold change vs veh, DTX4 / RFU, TFCP2 / Fold change vs veh, TFCP2 / RFU, GMCL1 /// GMCL1P1 / Fold change vs veh, GMCL1 /// GMCL1P1 / RFU, AEBP2 / Fold change vs veh, AEBP2 / RFU, SNHG1 /// SNORD22 /// SNORD25 /// SNORD26 /// SNORD27 /// SNORD28 /// SNORD29 /// SNORD31 / Fold change vs veh, SNHG1 /// SNORD22 /// SNORD25 /// SNORD26 /// SNORD27 /// SNORD28 /// SNORD29 /// SNORD31 / Fold change (Aza/veh), C12orf56 (ProbeSet 11735607_a_at) / Fold change (ACY-1035/veh), C12orf56 (ProbeSet 11735607_a_at) / Fold change (Aza/veh), FGFR1OP (ProbeSet 11751329_s_at) / Fold change (ACY-1035/veh), FGFR1OP (ProbeSet 11751329_s_at) / Fold change (Aza/veh), VPS36 (ProbeSet 11739960_a_at) / Fold change (ACY-1035/veh), VPS36 (ProbeSet 11739960_a_at) / RFU SYPL1 (11715823_x_at) / Fold change /veh SYPL1 (11715823_x_at) / RFU IGFBP7 (11715501_s_at) / Fold change /veh IGFBP7 (11715501_s_at) / RFU REEP3 (11722064_at) / Fold change /veh REEP3 (11722064_at) / RFU IGLL1 (11728026_x_at) / Fold change /veh IGLL1 (11728026_x_at): dose or concentration left out as unconfirmed. Conditions: MV-4-11 cells, 48 hours.

Structures are written as SMILES.

`Nc1ncn([C@@H]2O[C@H](CO)[C@@H](O)[C@H]2O)c(=O)n1` [azacitidine]: the “RFU CD79A (11719716_a_at)” value is listed as 8.73 RFU.

The record behind these values is PMC5218480 (PLoS ONE, 2017).
